The values that follow come from patent US6573269B1, “Pyrimidine-2,4,6-trione light screening compositions” (Roche Vitamins Inc., priority 1999, dated 2003).

Holding throughout (format): physicochemical
A short description of data set [1]: UV absorption (UV-A filter property). As to conditions: for UV extinction (ε) at absorption maximum: value in brackets after the UV maximum. The text has this:
The compounds of formula I have adsorption maxima in the range of 320 nm to 400 nm, the so called UV-A radiation.

Data set [2] can be described thus: Measurement of solubility in cosmetic solvents Cétiol LC and Crodamol DA. The note with it: oversaturated solution, overnight at 25° C., filtered, UV measurement in CH2Cl2. As for the experimental part:
e) Measurement of solubility in Cétiol LC (cocoyl caprylate caprate) and Crodamol DA (diisopropyl adipate).
After standing overnight at 25° C., the solution was filtered through a microfilter (Millipore, pore size 0.5 , μm), followed by UV measurement in CH2Cl2. The extinctions were compared with the extinctions of the pure compound.

Data set [3] can be described thus: Photostability: irradiation in high dilution with a Hg-lamp (150 W from Hereus). As to conditions: irradiated in high dilution with a Hg-lamp (150 W). As for the experimental part:
A 100 ml three necked reaction flask equipped with a thermometer, a reflux condenser, and a magnetic stirrer under nitrogen atmosphere was charged with 1.1 g (5 mmol) of 4-(2-ethyl-hexyloxy)-phenylamine (Example 1b), 1.06 g (5 mmol) of 1,3-diisopropyl-pyrimidine-2,4,6-trione (Example 1c) and 11.1 g (75 mmol) of triethyl orthoformate in 10 ml of tetrahydrofuran. This mixture was refluxed for 18 hours followed by washing twice with water, dried with Na2SO4, and concentrated on a rotary evaporator. The raw product was recrystallized in ethanol to yield 0.84 g of yellowish crystals. M.p. 74-76° C., UV 355 nm (32,122).

Take `CCCCCCCC(=O)Oc1ccc(NC=C2C(=O)N(C(C)C)C(=O)N(C(C)C)C2=O)c(O)c1` [5-{[(2-hydroxy-4-capryloxy)-phenylamine])-methylene}-1,3-diisopropyl-pyrimidine-2,4,6-trione]: in data set [1], the UV absorption maximum is recorded as 354 nm and the “UV extinction (ε) at absorption maximum” value was 25,813.

As for `CCCCC(CC)COc1ccc(NC=C2C(=O)N(C(C)C)C(=O)N(C(C)C)C2=O)cc1` (stereo not shown) [Example 1, 5-{[4-(2-Ethyl-hexyloxy)-phenylamine]-methylene}-1,3-diisopropyl-pyrimidine-2,4,6-trione], in data set [2], the “solubility in Crodamol DA (diisopropyl adipate)” value (“solubility in Crodamol DA” below) came out at 26.9% and the “solubility in Cétiol LC (cocoyl caprylate caprate)” value (shortened to “solubility in Cétiol LC”) is on record as 15.5%. In addition, in data set [3], the photostability result is reported as “photostable”. In data set [1], the UV absorption maximum amounted to 355 nm and the “UV extinction (ε) at absorption maximum” value is 32,122.

Take `C#CCOc1ccc(NC=C2C(=O)N(C(C)C)C(=O)N(C(C)C)C2=O)cc1` [Example 2, 5-{(4-Propargyloxy-phenylamine)-methylene}-1,3-diisopropyl-pyrimidine-2,4,6-trione]: the photostability result in data set [3] is given as “photostable”. In data set [1], the UV absorption maximum came to 352 nm and the “UV extinction (ε) at absorption maximum” value is listed as 31,596.

Consider `C=C(COc1ccc(NC=C2C(=O)N(C(C)C)C(=O)N(C(C)C)C2=O)cc1)[Si](C)(O[Si](C)(C)C)O[Si](C)(C)C` [Example 3, 5-{[4-(2-(1,3,3,3-tetramethyl-1-[(trimethylsilyl)-oxy]-disiloxanyl)-prop-2-enyloxy)-phenylamine]-methylene}-1,3-diisopropyl-pyrimidine-2,4,6-trione], for which, in data set [2], the “solubility in Crodamol DA” value is “unlimited” and the “solubility in Cétiol LC” value is “unlimited”. Also, in data set [3], the photostability result is reported as “excellent”. Further, in data set [1], the UV absorption maximum was determined as 354 nm and the “UV extinction (ε) at absorption maximum” value is 31,520.

As for `CC(C)N1C(=O)C(=CNc2ccc(O)cc2)C(=O)N(C(C)C)C1=O` [Example 6, 5-{(4-Hydroxy-phenylamine)-methylene}-1,3-diisopropyl-pyrimidine-2,4,6-trione], the “solubility in Crodamol DA” value in data set [2] is on record as 3.6%. Also, in data set [3], the photostability result is listed as “photostable”. Moreover, in data set [1], the UV absorption maximum was 351 nm and the “UV extinction (ε) at absorption maximum” value was 27,911.

Turning to `CC(C)N1C(=O)C(=CNc2ccc(O)cc2O)C(=O)N(C(C)C)C1=O` [Example 7, 5-{(2,4-Dihydroxy-phenylamine)-methylene}-1,3-diisopropyl-pyrimidine-2,4,6-trione], in data set [2], the “solubility in Crodamol DA” value was 4.1%. For the same molecule, in data set [3], the photostability entry is on record as “photostable”. Besides, in data set [1], the UV absorption maximum amounted to 363 nm and the “UV extinction (ε) at absorption maximum” value is listed as 23,564.

For the molecule `CCCCCCCC(=O)Oc1ccc(NC=C2C(=O)N(C(C)C)C(=O)N(C(C)C)C2=O)cc1` [Example 8, 5-{(4-Capryloxy-phenylamine)-methylene}-1,3-diisopropyl-pyrimidine-2,4,6-trione], in data set [2], the “solubility in Crodamol DA” value came to 18.5% and the “solubility in Cétiol LC” value came out at 6.6%. For the same molecule, in data set [3], the photostability result is “photostable”. In data set [1], the UV absorption maximum came out at 346 nm and the “UV extinction (ε) at absorption maximum” value is listed as 33,768.

As for `CCCCCCCC(=O)Oc1ccc(NC=C2C(=O)N(C(C)C)C(=O)N(C(C)C)C2=O)c(OC(=O)CCCCCCC)c1` [Example 9 diester], the “solubility in Cétiol LC” value in data set [2] is given as “easily mixable with Cétiiol LC in any proportion”. Further, in data set [1], the UV absorption maximum is on record as 351 nm and the “UV extinction (ε) at absorption maximum” value is reported as 31,349.
